pEC50: −log10 of the molar value.

The results in this text go back to US11905284B2, “5,7-dihydro-pyrrolo-pyridine derivatives” (PFIZER INC., priority 2016, dated 2024).

This test concerns the target T1, Human M4 receptors (Homo sapiens, UniProt P08173).
T1 construct: expressed in transfected cells; host or cells: HEK293 cells with Promega GloSensor cAMP technology, stably expressing hM4
T1 sequence (P08173 1-479): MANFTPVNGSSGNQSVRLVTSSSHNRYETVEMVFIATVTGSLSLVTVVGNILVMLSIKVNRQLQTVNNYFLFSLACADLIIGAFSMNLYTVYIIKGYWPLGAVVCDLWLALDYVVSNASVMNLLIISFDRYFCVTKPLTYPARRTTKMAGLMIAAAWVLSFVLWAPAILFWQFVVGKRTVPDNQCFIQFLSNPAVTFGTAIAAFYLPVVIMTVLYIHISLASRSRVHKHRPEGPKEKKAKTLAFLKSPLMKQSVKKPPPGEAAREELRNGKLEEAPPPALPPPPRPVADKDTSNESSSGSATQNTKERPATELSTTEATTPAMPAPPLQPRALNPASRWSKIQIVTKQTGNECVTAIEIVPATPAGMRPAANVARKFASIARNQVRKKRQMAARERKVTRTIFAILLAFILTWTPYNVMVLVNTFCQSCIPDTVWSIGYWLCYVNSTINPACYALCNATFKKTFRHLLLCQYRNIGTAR
The experiment in a line: M4 PAM cAMP assay (GloSensor). The conditions noted are these: for Emax: HEK293, read-out: M4 glosensor EC50 Mean Asymptote Maximum (%); for pEC50: HEK293 GloSensor cells expressing hM4, with EC20 acetylcholine and isoproterenol, geometric mean of 2-4 determinations unless otherwise indicated. It counts as cell-based. How it is done: The M4 PAM binding affinity for the compounds of the present invention was determined utilizing the following biological assay(s):
The M4 cAMP assay was designed to determine the potency and efficacy of muscarinic positive allosteric modulators (PAMs). Human M4 receptors were stably expressed in Human embryonic kidney (HEK293) cells expressed with the Promega GloSensor™ cAMP technology.
HEK293 GloSensor cells expressing hM4 cells were cultured in growth media containing DMEM with 10% FBS, 1% Penicillin/Streptomycin, 500 μg/mL G418, 200 μg/mL Hygomycin B, and 1% Glutamax. […] Plates were incubated at 37 degrees C. and 5% CO2 for use after 24 hours.
Compound Preparation for Agonist Screen:
Each compound was tested at 10 concentrations in duplicate per experiment. Compound plates are spotted with 0.2 μL/well agonist at 400 times the final assay concentration. Positive and negative controls for the compound alone agonist response was 10 μM acetylcholine (Sigma #A2661) and DMSO, respectively. EC20 of acetylcholine was also used to define PAM activities.
Promega GloSensor™ reagent (Promega #E1291) had previously been aliquotted. […] Stock solution was mixed. Culture media in cell plates was discarded, then replaced with 40 μL/well pre-warmed equilibration media, then incubated in the dark at room temperature for 2 hours. During the incubation, stimulation media containing agonist and EC20 acetylcholine was prepared. […] Compounds are now 5 times the final assay concentration. The plate was mixed using a plate agitator. At the end of the 2 hour GloSensor™ incubation, add 10 μL of the CO2-independent media containing agonist, EC20 acetylcholine and isoproterenol to the cell plate. Cell plate was then incubated for 10 minutes at room temperature, and then read using an EnVision plate reader (Perkin Elmer).
Data was exported from the EnVision plate reader. The percent effect for each well was determined using the mean values for the positive and negative controls on each plate for each read, specifically 100*(compound−negative control)/(positive control−negative control). Dose response curves were fitted to the compound percent effect data using a 4-parameter logistic fit model. Data was reported as EC50 and Emax, with the Emax as the maximum asymptote of the fitted dose response curve.

With `Cc1nc2c(c(C)c1C)CN(C(=O)CC1CN(c3cccnc3)C1)C2` [Example 23, 2-[1-(pyridin-3-yl)azetidin-3-yl]-1-(2,3,4-trimethyl-5,7-dihydro-6H-pyrrolo[3,4-b]pyridin-6-yl)ethanone], the Emax was determined as 92.2% and the pEC50 was 8.21.
As for `Cc1cc(CO)nc2c1CN(C(=O)CC1CN(c3ccncn3)C1)C2` [Example 24, 1-[2-(hydroxymethyl)-4-methyl-5,7-dihydro-6H-pyrrolo[3,4-b]pyridin-6-yl]-2-[1-(pyrimidin-4-yl)azetidin-3-yl]ethanone], the Emax came to 93.8% and the pEC50 is 7.51.
For `Cc1cc(C(F)F)nc2c1CN(C(=O)CC1CN(c3ccnc(OC(F)F)c3)C1)C2` [Example 25, 2-{1-[2-(difluoromethoxy)pyridin-4-yl]azetidin-3-yl}-1-[2-(difluoromethyl)-4-methyl-5,7-dihydro-6H-pyrrolo[3,4-b]pyridin-6-yl]ethanone], the Emax stood at 78.7% and the pEC50 was 7.59.
For `COc1nc2c(c(C)c1Cl)CN(C(=O)CC1CN(c3cncnc3)C1)C2` [Example 26, 1-(3-chloro-2-methoxy-4-methyl-5,7-dihydro-6H-pyrrolo[3,4-b]pyridin-6-yl)-2-[1-(pyrimidin-5-yl)azetidin-3-yl]ethanone], in that order: 117% and 7.86.
Turning to `COCc1cc(C)c2c(n1)CN(C(=O)CC1CN(c3cccnc3)C1)C2` [Example 27, 1-[2-(methoxymethyl)-4-methyl-5,7-dihydro-6H-pyrrolo[3,4-b]pyridin-6-yl]-2-[1-(pyridin-3-yl)azetidin-3-yl]ethanone], the Emax came out at 94.4% and the pEC50 was 7.77.
In the same order, the values of `COc1nc2c(c(C)c1C)CN(C(=O)CC1CN(c3cccnc3)C1)C2` [Example 28, 1-(2-methoxy-3,4-dimethyl-5,7-dihydro-6H-pyrrolo[3,4-b]pyridin-6-yl)-2-[1-(pyridin-3-yl)azetidin-3-yl]ethanone] are 116% and 7.67.
For `COc1nc2c(c(C)c1C)CN(C(=O)CC1CN(c3cncnc3)C1)C2` [Example 29, 1-(2-methoxy-3,4-dimethyl-5,7-dihydro-6H-pyrrolo[3,4-b]pyridin-6-yl)-2-[1-(pyrimidin-5-yl)azetidin-3-yl]ethanone], in that order: 99.8% and 7.58.
In the same order, the values of `Cc1cc(C)c2c(n1)CN(C(=O)CC1CN(c3ccnnc3)C1)C2` [Example 30, 1-(2,4-dimethyl-5,7-dihydro-6H-pyrrolo[3,4-b]pyridin-6-yl)-2-[1-(pyridazin-4-yl)azetidin-3-yl]ethanone] are 103% and 7.52.
As to `COCc1cc(C)c2c(n1)CN(C(=O)CC1CN(c3cncnc3)C1)C2` [Example 31, 1-[2-(methoxymethyl)-4-methyl-5,7-dihydro-6H-pyrrolo[3,4-b]pyridin-6-yl]-2-[1-(pyrimidin-5-yl)azetidin-3-yl]ethanone], the Emax came out at 89.3% and the pEC50 was 7.75.
For `Cc1c(Cl)c(OC(F)F)nc2c1CN(C(=O)CC1CN(c3cncnc3)C1)C2` [Example 32, 1-[3-chloro-2-(difluoromethoxy)-4-methyl-5,7-dihydro-6H-pyrrolo[3,4-b]pyridin-6-yl]-2-[1-(pyrimidin-5-yl)azetidin-3-yl]ethanone], in that order: 109% and 7.96.
In the same order, the values of `Cc1cc(CO)nc2c1CN(C(=O)CC1CN(c3ccnc(C(F)(F)F)c3)C1)C2` [Example 33, 1-[2-(hydroxymethyl)-4-methyl-5,7-dihydro-6H-pyrrolo[3,4-b]pyridin-6-yl]-2-{1-[2-(trifluoromethyl)pyridin-4-yl]azetidin-3-yl}ethanone] are 100% and 7.85.
In the same order, the values of `Cc1cc(C(F)F)nc2c1CN(C(=O)CC1CN(c3cncnc3)C1)C2` [Example 34, 1-[2-(difluoromethyl)-4-methyl-5,7-dihydro-6H-pyrrolo[3,4-b]pyridin-6-yl]-2-[1-(pyrimidin-5-yl)azetidin-3-yl]ethanone] are 86% and 7.74.
Consider `Cc1nc2c(c(C)c1C)CN(C(=O)CC1CN(c3ccncn3)C1)C2` [Example 35, 2-[1-(pyrimidin-4-yl)azetidin-3-yl]-1-(2,3,4-trimethyl-5,7-dihydro-6H-pyrrolo[3,4-b]pyridin-6-yl)ethanone], for which the Emax is 87.9% and the negative logarithm of the EC50 (pEC50) is 8.59.
On to `Cc1nc2c(c(C)c1C)CN(C(=O)OC1CN(c3cccnc3)C1)C2` [Example 36, 1-(pyridin-3-yl)azetidin-3-yl 2,3,4-trimethyl-5,7-dihydro-6H-pyrrolo[3,4-b]pyridine-6-carboxylate], for which the Emax came to 93% and the pEC50 is 7.98.
In the same order, the values of `Cc1nc2c(c(C)c1Cl)CN(C(=O)CC1CN(c3ccncn3)C1)C2` [Example 39, 1-(3-chloro-2,4-dimethyl-5,7-dihydro-6H-pyrrolo[3,4-b]pyridin-6-yl)-2-[1-(pyrimidin-4-yl)azetidin-3-yl]ethanone] are 96.4% and greater than 8.86.
In the case of `COCc1nc2c(c(C)c1C)CN(C(=O)CC1CN(c3cncnc3)C1)C2` [Example 40, 1-[2-(methoxymethyl)-3,4-dimethyl-5,7-dihydro-6H-pyrrolo[3,4-b]pyridin-6-yl]-2-[1-(pyrimidin-5-yl)azetidin-3-yl]ethanone], the Emax was determined as 97.9% and the pEC50 was 7.63.
`CCNc1nccc(N2CC(CC(=O)N3Cc4nc(C)cc(C)c4C3)C2)n1` [Example 41, 1-(2,4-dimethyl-5,7-dihydro-6H-pyrrolo[3,4-b]pyridin-6-yl)-2-{1-[2-(ethylamino)pyrimidin-4-yl]azetidin-3-yl}ethanone]: the Emax was 95.6% and the pEC50 is 8.13.
In the same order, the values of `Cc1cc(C)c2c(n1)CN(C(=O)CC1CN(c3cc(NC(C)C)ncn3)C1)C2` [Example 42, 1-(2,4-dimethyl-5,7-dihydro-6H-pyrrolo[3,4-b]pyridin-6-yl)-2-{1-[6-(propan-2-ylamino)pyrimidin-4-yl]azetidin-3-yl}ethanone] are 93.9% and 8.30.
For the compound `Cc1cc(C)c2c(n1)CN(C(=O)CC1CN(c3ccc4nc(C)cn4n3)C1)C2` [Example 43, 1-(2,4-dimethyl-5,7-dihydro-6H-pyrrolo[3,4-b]pyridin-6-yl)-2-[1-(2-methylimidazo[1,2-b]pyridazin-6-yl)azetidin-3-yl]ethanone], the Emax came to 88.6% and the pEC50 was 7.60.
For `Cc1nc2c(c(C)c1Cl)CN(C(=O)CC1CN(c3nncs3)C1)C2` [Example 44, 1-(3-chloro-2,4-dimethyl-5,7-dihydro-6H-pyrrolo[3,4-b]pyridin-6-yl)-2-[1-(1,3,4-thiadiazol-2-yl)azetidin-3-yl]ethanone], the Emax was 112% and the pEC50 was 7.77.
Turning to `Cc1cc(C(F)F)nc2c1CN(C(=O)CC1CN(c3ccnc(C(F)F)c3)C1)C2` [Example 45, 1-[2-(difluoromethyl)-4-methyl-5,7-dihydro-6H-pyrrolo[3,4-b]pyridin-6-yl]-2-{1-[2-(difluoromethyl)pyridin-4-yl]azetidin-3-yl}ethanone], the Emax turned out to be 93.5% and the pEC50 is 7.81.
`Cc1nc2c(c(C)c1C)CN(C(=O)CC1CN(c3ccnc(C(F)F)c3)C1)C2` [Example 46, 2-{1-[2-(difluoromethyl)pyridin-4-yl]azetidin-3-yl}-1-(2,3,4-trimethyl-5,7-dihydro-6H-pyrrolo[3,4-b]pyridin-6-yl)ethanone]: the Emax was determined as 106% and the pEC50 is 8.02.
Turning to `COCc1nc2c(c(C)c1Cl)CN(C(=O)CC1CN(c3ccnc(C(F)F)c3)C1)C2` [Example 47, 1-[3-chloro-2-(methoxymethyl)-4-methyl-5,7-dihydro-6H-pyrrolo[3,4-b]pyridin-6-yl]-2-{1-[2-(difluoromethyl)pyridin-4-yl]azetidin-3-yl}ethanone], the Emax is 110% and the pEC50 was 8.66.
